We go through 26 molecules from patent US20200046625A1, “COMPOUNDS USEFUL FOR THE TREATMENT AND/OR CARE OF THE SKIN, HAIR, NAILS AND/OR MUCOUS MEMBRANES” (LUBRIZOL ADVANCED MATERIALS, INC., priority 2016, published 2020).

For assay [1], the system named is primary human subcutaneous pre-adipocyte cells. Briefly: Reduction of lipid accumulation, AdipoRed fluorescent assay. Particulars: 8 days of treatment, PGM2 = 0%, PDM2 basal control = 100%. It counts as cell-based. As to the method:
The reduction of the percentage of lipid accumulation in human pre-adipocyte cells in a complete differentiation medium (basal control) is studied by treatment of the cells with the peptides of the invention. Quantification of lipid accumulation is evaluated with AdipoRed™ Assay Reagent (Lonza). Human pre-adipocyte cells (Lonza) are seeded in quadruplicate (10.000 cells/well) on a 96-well plate and they are incubated on a complete growth medium (PGM2, Lonza) for 24 hours at […] in a water-saturated atmosphere composed of 95% air and 5% CO2. The differentiation of pre-adipocytes into adipocytes is induced by changing the complete growth medium (PGM2, Lonza) for the complete differentiation medium (PDM2, Lonza). The cells are treated with the peptides of the invention at different concentrations prepared in complete differentiation medium. Caffeine (Sigma) at 0.2 mg/ml in PDM2 medium is used as a negative control of the lipid accumulation in the cells. Caffeine is the most widely used anti-cellulite cosmetic agent. […] Manufacturer protocol is followed for the use of AdipoRed™ Assay Reagent (Lonza). In brief, the cells are washed and the reagent AdipoRed™ is added diluted (5/200). After being incubated for 15 minutes in darkness and at room temperature, the Relative Fluorescence Units (RFUs) are measured using a fluorescence plate reader (CLARIOstar™, BMG LABTECH), with excitation filter at 485 nm and emission filter at 572 nm. […] The results are calculated as the mean of all the independent experiments carried out in each case for each peptide and concentration assayed.

Assay [2] relates to Nocturnin (CCRN4L) in primary human subcutaneous pre-adipocyte cells. Kind of assay: Relative level of nocturnin by ELISA, normalized with BCA total protein. It counts as cell-based. Particulars: for Nocturnin level with respect to basal condition (%): 6 days of treatment, mean of 3 independent experiments. The method, then: The decrease in the relative level of nocturnin protein in human pre-adipocytes, cells that form adipose tissue, in a complete differentiation medium (basal condition) is studied when treating the peptides of the invention.
Human pre-adipocytes are seeded (10,000 cells/well, 4 wells per condition) on a 96-well plate and incubated on a complete growth medium (PGM2, LONZA) for 24 hours at 37° C. at an atmosphere with a CO2 level of 5%.
After incubation, the cells are treated with the peptides at 0.1, 0.5 and 1 mg/ml and its respective vehicles prepared in a complete differentiation medium (PDM2, LONZA). After 6 days of treatment at an atmosphere with 37° C. and a 5% CO2 level, the nocturnin level is measured using an ELISA test, and the total protein concentration is measured using a BCA (Bicinchoninic Acid) assay. For each concentration, the ELISA results are normalized with the BCA results. […] The values represent the mean of 3 independent experiments.
The manufacturer protocol of the ELISA kit for Carbon Catabolite Repression 4 Like Protein (CCRN4L) (Uscn Life Science Inc) is followed. In brief, the cells are lysed and the cell extracts are incubated on a 96-well plate coated with an anti-body specific to CCRN4L. Afterwards, the wells are coated with an antibody specific to CCRN4L conjugated with Biotin. Next, the Avidin conjugated with the enzyme Horseradish Peroxidase (HRP) is added to the plate. Finally, 3,3′,5,5′-Tetramethylbenzidine substrate is added to the plate and a change in color is observed proportionally to the quantity of nocturnin in each concentration. Lastly, a sulfuric acid solution is added to stop the enzyme-substrate reaction and quantify the color change with an absorbance reader (CLARIOstar™, BMG LABTECH) at 450 and 570 nm.
The manufacturer protocol of the BCA Protein assay kit (Pierce) is followed. The total protein concentration of the lysed cells is measured via a colorimetric reaction using a protein standard. In brief, the standard and the samples are distributed onto 96-well plates. The plate is then incubated with the reagent of the kit and finally the change in color is measured with the absorbance reader (CLARIOstar, BMG LABTECH) at 570 nm.
(ELISA stands for enzyme-linked immunosorbent assay.)

The star is where a group is joined. Palmitoyl = CCCCCCCCCCCCCCCC(=O)*; Myristoyl = CCCCCCCCCCCCCC(=O)*

With H-Tyr-Ile-Phe-NH2, in assay [1] (1 mg/ml), the “% Lipid Accumulation” value is reported as 47.45%.
On the same count and under the same terms, for H-Tyr-Leu-Trp-NH2 the value was 62.42%; for H-Tyr-Val-Tyr-NHC6H13, 30.79%; for H-Tyr-Val-Tyr-NHC16H33, 50.12%.
Same read-out and setting: for H-Tyr-Ile-Phe-NHC6H13 the value was 30.72%.
H-Phe-Trp-Tyr-Val-Tyr-NH2 (H-FWYVY-NH2): the “% Lipid Accumulation” value in assay [1] (0.005 mg/ml) is 55.99%.
With Myristoyl-Tyr-Val-Tyr-NH2, the “% Lipid Accumulation” value in assay [1] (1 mg/ml) is 12.40%.
With H-Tyr-Val-Tyr-NH2, the entries for the “% Lipid Accumulation” value in assay [1] (0.1 mg/ml), in assay [1] (0.5 mg/ml) and in assay [1] (1 mg/ml) were 32.65%, 18.60% and 15.65%, respectively. In addition, the Nocturnin level with respect to basal condition (%) in assay [2] (0.1 mg/mL) is 76%; in assay [2] (0.5 mg/mL), 62%; in assay [2] (1 mg/mL), 48%. Also, the “dose-response of nocturnin reduction (in words)” value in assay [2] (0.1, 0.5 and 1 mg/ml) is recorded as “a dose-response relationship is observed”.
As to Palmitoyl-Tyr-Leu-Tyr-NH2, the “% Lipid Accumulation” value in assay [1] (1 mg/ml) came to 25.42%.
Turning to Ac-Tyr-Val-Tyr-NH2, the “% Lipid Accumulation” value in assay [1] (1 mg/ml) is 20.81%.
`Cn1c(=O)c2c(ncn2C)n(C)c1=O` [Caffeine, reference compound]: in assay [1] (0.2 mg/ml in PDM2), the “% Lipid Accumulation” value worked out at 76.07%.
As for H-Tyr-Val-Trp-NH2, the “% Lipid Accumulation” value in assay [1] (1 mg/ml) amounted to 61.87%.
As to H-Tyr-Val-Tyr-Phe-NH2 (H-YVYF-NH2), the “% Lipid Accumulation” value in assay [1] (1 mg/ml) was 86.68%.
Same read-out and setting: the same measure for H-Tyr-Met-Tyr-NH2: 40.24%; for H-Tyr-Val-Tyr-Trp-NH2 (H-YVYW-NH2): 90.32%.
The same measure, in the same setting: for H-Tyr-Ile-Tyr-NHC16H33 the value was 23.74%; for Ac-Trp-Val-Tyr-NH2, 63.18%.
Turning to H-Tyr-Val-Tyr-OH, the figures for the “% Lipid Accumulation” value in assay [1] (0.1 mg/ml), in assay [1] (0.5 mg/ml) and in assay [1] (1 mg/ml) were 35.14%, 33.55% and 22.66%, respectively. The Nocturnin level with respect to basal condition (%) in assay [2] (0.1 mg/mL) is 67%; in assay [2] (0.5 mg/mL), 87%; in assay [2] (1 mg/mL), 83%.
On to Myristoyl-Tyr-Val-Phe-NH2, for which the “% Lipid Accumulation” value in assay [1] (1 mg/ml) turned out to be 37.77%.
Same read-out and setting: for H-Tyr-Ile-Phe-NHC16H33 the value was 40.61%; for H-Phe-Tyr-Val-Tyr-Phe-NH2 (H-FYVYF-NH2), 64.31%; for H-Tyr-Val-Tyr-Phe-Trp-NH2 (H-YVYFW-NH2), 76.47%.
For Palmitoyl-Tyr-Val-Tyr-NH2, the “% Lipid Accumulation” value in assay [1] (0.1 mg/ml) was found to be 86.17%.
Regarding H-Tyr-Ile-Tyr-NH2, in assay [1] (1 mg/ml), the “% Lipid Accumulation” value was 46.63%.
On the same count and under the same terms, the same measure for H-Tyr-Ile-Tyr-NHC6H13: 52.82%.
On to Palmitoyl-Tyr-Leu-Tyr-OH, for which the “% Lipid Accumulation” value in assay [1] (0.005 mg/ml) came out at 79.98%.
